# Measured values from article PMC6829886, “Inhibition of Non-Small Cell Lung Cancer Cells by Oxy210, an Oxysterol-Derivative that Antagonizes TGFβ and Hedgehog Signaling” (Cells, 2019).
# Several values for one entry are separate records, joined by “and”; a condition that tells them apart may be missing. Equal entries are not always repeated.
# How the values were obtained:
# [1] = tested on: phosphorylation of Smad2 and Smad3 in A549 cells; assay: Western blot of TGFβ-induced Smad2/Smad3 phosphorylation; assay type: cell-based, human; settings: 10 μM pretreatment 3 h, TGFβ 4 ng/mL
# Method: A549 cells were pretreated with DMSO, Oxy186 (10 μM) or Oxy210 (10 μM) for 3 h, then treated with TGFβ (4 ng/mL) for the indicated times. After treatment, the cells were harvested in Triton lysis buffer (1% Triton X-100, 25 mM Tris-HCl, pH 7.4, 300 mM NaCl with protease and phosphatase inhibitors), and the supernatant was collected as cell lysates after centrifugation (15,000× g, 25 min at 4 °C). A Bradford assay was used to measure the protein concentration. […] proteins of each sample were loaded into the wells of an 8% SDS-PAGE gel, and the proteins were transferred to a PVDF membrane after SDS-PAGE gel separation. […] Densitometry readings were performed with ImageJ software (Version 1.52a, NIH, Bethesda, MD, USA, see Supplementary Materials).
# Figure 11 Inhibition of TGFβ-induced Smad2/3 phosphorylation and transcriptional activity. […] Luciferase activity was measured and normalized to the Renilla luciferase activity. […]
# [2] = Metabolic stability in mouse liver microsomes; assay type: in vitro ADME
# [3] = Single oral dose pharmacokinetic study in mice; assay type: in vivo; settings: mouse, plasma, oral gavage, single dose 50 mg/kg
# Method: In an initial assessment of drug-like properties of Oxy210, we performed a pharmacokinetic (PK) study in mice. Oxy210, formulated in 3% DMSO + 7% Ethanol + 5% PEG400 + 85% corn oil, was administered to balb/c mice by oral gavage as a single dose of 50 mg/kg. Plasma samples were taken at 10 min, 30 min, 1 h, 2 h, 4 h, and 8h, followed by LC/MS analysis. […] Additional PK studies in mice were performed with Oxy210 in a dose escalation study with repeated once daily oral dosing (50 mg/kg, 200 mg/kg and 400 mg/kg) for 7 days.
# Figure 13 Drug-like properties of Oxy210. (a) A single dose of Oxy210 at 50 mg/kg, formulated in 3% DMSO + 7% Ethanol + 5% PEG400 + 85% corn oil, was administered to balb/c mice by oral gavage. Plasma samples were taken at 10 min, 30 min, 1h, 2h, 4h, 6h, and 8h, followed by LC/MS analysis of the plasma. (b) Evolution of Oxy210 and Oxy186 from parent compound Oxy16 and their drug-like properties.
# [4] = tested on: Gli responsive luciferase reporter (endogenous Gli); assay: Gli responsive luciferase reporter in Sufu-/- cells; assay type: cell-based, mouse; settings: 72 hrs
# Method: NIH3T3-E1 cells cultured in 24 well-plates at 90% confluence were transiently transfected with 0.1 μg of Smad response-element reporter (SBE-Luciferase) plasmid (Qiagen), or with 0.1 μg of Gli response-element reporter (pGL3b-8xGli-Luciferase) plasmid, and 10 ng of pSV40-Renilla-Luciferase plasmid (Promega, Madison, WI, USA) with or without co-transfection with 10ng of Gli1 overexpression vector, pSRα-Gli1 using a Lipofectamine LTX Plus transfection reagent, as previously described. Sufu-/- cells cultured in 24 well-plates at 90% confluence were transiently transfected with 0.1μg of pGL3b-8xGli-Luciferase plasmid, and 10 ng of pSV40-Renilla-Luciferase plasmid. 6 hrs after transfection, cells were treated with test agents for 72 h. […] Then the firefly and Renilla luciferase activities were measured using a dual luciferase kit (Promega) and a GloMax-96 Microplate Luminometer (Promega) or a plate reader-SpectraMax iD3 (Molecular Devices, San Jose, CA, USA). […]
# Figure 5 Oxy210 acts downstream of Smo. […] After 72 h, RNA was extracted and analyzed by Q-RT-PCR for the expression of Hh target genes Gli1 and Hip, normalized to Oaz1 expression. […] Luciferase activity was measured and normalized to the Renilla luciferase activity. […]
smiles,measurement,setting,value
"C[C@]12CC[C@H]3[C@@H](CC=C4C[C@@H](O)CC[C@@]43C)[C@@H]1CC[C@@H]2[C@](C)(O)CCc1cccnc1 [Oxy210, (3S,8S,9S,10R,13S,14S,17S)-17-((R)-2-hydroxy-4-(pyridin-3-yl)butan-2-yl)-10,13-dimethyl-2,3,4,7,8,9,10,11,12,13,14,15,16,17-tetradecahydro-1H-cyclopenta[a]phenanthren-3-ol]",TGFβ-induced phosphorylation of Smad2 and Smad3,[1],robustly inhibited
same,remaining at 1 h,"[2]; read-out: MLM, % Remaining after 60 min",61%
same,half-life,"[2]; read-out: MLM, Half-Life",1.4 h
same,MRT,"[3]; balb/c, po, 50 mg/kg, read-out: mean residence time (MRT)",8 h
same,AUC(0-inf),[3]; balb/c mice,9210 ng·h/mL
same,Tmax,[3]; balb/c mice,0.5 h
same,Cmax,[3]; balb/c mice,1970 ng/mL and 4.7 µM
same,activity of Gli responsive luciferase reporter,[4],significantly inhibited
